Measured values as given in PubChem BioAssay AID330 (DTP/NCI, 2004).
Several values for one entry are separate records, joined by “and”; a condition that tells them apart may be missing. Equal entries are not always repeated. Inconclusive results and toxic doses are left out. The calls were made as follows: active = survival T/C of 150% or more; inactive = T/C below 125% in these data.

Test system: P388 leukemia ip, CD2F1 mice, survival T/C
Experiment: NCI In Vivo Anticancer Drug Screen. Data for tumor model P388 Leukemia (intraperitoneal) in CD2F1 (CDF1) mice
Conditions: endpoint: median survival time, higher = longer survival
Outline: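 Mice carrying the transplanted tumor received test compound or vehicle. Survival was recorded in each group, and the value is the treated-group measurement divided by that of the vehicle-treated control group.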

[1] = dose: 50.0 mg/kg/injection, schedule: Q01DX009 (ip), vehicle: Klucel (hydroxypropylcellulose) (HPC)
[2] = dose: 100.0 mg/kg/injection, schedule: Q01DX009 (ip), vehicle: Klucel (hydroxypropylcellulose) (HPC)
[3] = dose: 200.0 mg/kg/injection, schedule: Q01DX009 (ip), vehicle: Klucel (hydroxypropylcellulose) (HPC)
[4] = dose: 50.0 mg/kg/injection, schedule: Q01DX009 (ip), vehicle: saline
[5] = dose: 100.0 mg/kg/injection, schedule: Q01DX009 (ip), vehicle: saline
[6] = dose: 25.0 mg/kg/injection, schedule: Q01DX009 (ip), vehicle: saline
[7] = dose: 60.0 mg/kg/injection, schedule: Q01DX005 (ip), vehicle: saline with Tween-80
[8] = dose: 120.0 mg/kg/injection, schedule: Q01DX005 (ip), vehicle: saline with Tween-80
[9] = dose: 50.0 mg/kg/injection, schedule: Q01DX005 (ip), vehicle: saline with Tween-80
[10] = dose: 100.0 mg/kg/injection, schedule: Q01DX005 (ip), vehicle: saline with Tween-80
[11] = dose: 200.0 mg/kg/injection, schedule: Q01DX005 (ip), vehicle: saline with Tween-80
[12] = dose: 50.0 mg/kg/injection, schedule: Q01DX009 (ip), vehicle: saline with Tween-80
[13] = dose: 100.0 mg/kg/injection, schedule: Q01DX009 (ip), vehicle: saline with Tween-80
[14] = dose: 200.0 mg/kg/injection, schedule: Q01DX009 (ip), vehicle: saline with Tween-80
[15] = dose: 240.0 mg/kg/injection, schedule: Q01DX005 (ip), vehicle: saline with Tween-80
[16] = dose: 50.0 mg/kg/injection, schedule: Q01DX005 (ip), vehicle: Klucel (hydroxypropylcellulose) (HPC)
[17] = dose: 100.0 mg/kg/injection, schedule: Q01DX005 (ip), vehicle: Klucel (hydroxypropylcellulose) (HPC)
[18] = dose: 200.0 mg/kg/injection, schedule: Q01DX005 (ip), vehicle: Klucel (hydroxypropylcellulose) (HPC)
[19] = dose: 10.0 mg/kg/injection, schedule: Q01DX009 (ip), vehicle: saline with Tween-80
[20] = dose: 20.0 mg/kg/injection, schedule: Q01DX009 (ip), vehicle: saline with Tween-80

Measured: T/C

COC(CNc1nc2c(s1)c1c(O)c3c(O)c(C)c4c(c32)C(=O)C(C)(O/C=C\C(OC)C(C)C(OC(C)=O)C(C)C(O)C(C)C(O)C(C)/C=C/C=C(/C)C(=O)N1)O4)OC (centres undefined)
inactive: dose: 25.0 mg/kg/injection, schedule: Q01DX009 (ip), vehicle: Klucel (hydroxypropylcellulose) (HPC) 93 % of control | [1] 95 % of control | [2] 93 % of control | [3] 94 % of control

N#CC(C#N)=Cc1ccc(N2CCCCC2)cc1
inactive: [4] 87 % of control | [5] 88 % of control | dose: 200.0 mg/kg/injection, schedule: Q01DX009 (ip), vehicle: saline 100 % of control

CN(C)CCCn1c2ccccc2c2cnccc21
inactive: [6] 100 % of control | dose: 25.0 mg/kg/injection, schedule: Q04DX003 (ip), vehicle: saline 100 % of control | [4] 100 % of control | dose: 50.0 mg/kg/injection, schedule: Q04DX003 (ip), vehicle: saline 95 % of control | [5] 109 % of control | dose: 100.0 mg/kg/injection, schedule: Q04DX003 (ip), vehicle: saline 95 % of control

NC(=O)CCSC1=CC(=O)c2ccccc2C1=O
inactive: dose: 3.13 mg/kg/injection, schedule: Q04DX003 (ip), vehicle: saline with Tween-80 103 % of control | dose: 6.25 mg/kg/injection, schedule: Q04DX003 (ip), vehicle: saline with Tween-80 110 % of control | dose: 12.5 mg/kg/injection, schedule: Q04DX003 (ip), vehicle: saline with Tween-80 103 % of control and 110 % of control

CS(=O)(=O)OCCC[Se]Cc1ccccc1C[Se]CCCOS(C)(=O)=O
inactive: [7] 93 % of control | [8] 91 % of control

CC1CN=C(c2ccc(NC(=O)c3ccc(NC(=O)c4ccc(C5=NCC(C)N5)cc4)cc3)cc2)N1 (centres undefined)
inactive: dose: 6.25 mg/kg/injection, schedule: Q01DX005 (ip), vehicle: saline with Tween-80 119 % of control and 123 % of control | dose: 12.5 mg/kg/injection, schedule: Q01DX005 (ip), vehicle: saline with Tween-80 110 % of control

CC1OC(O[C@@H]2C=C3CC[C@@H]4[C@H](CC[C@]5(C)[C@@H](c6ccc(=O)oc6)CC[C@]45O)[C@@]3(C)CC2)C(O)C(O)C1O (some centres undefined)
inactive: dose: 1.25 mg/kg/injection, schedule: Q01DX010 (sc), vehicle: steriod suspending solution 110 % of control | dose: 2.5 mg/kg/injection, schedule: Q01DX010 (sc), vehicle: steriod suspending solution 110 % of control | dose: 5.0 mg/kg/injection, schedule: Q01DX010 (sc), vehicle: steriod suspending solution 110 % of control | dose: 10.0 mg/kg/injection, schedule: Q01DX010 (sc), vehicle: steriod suspending solution 115 % of control

CC1CC=C2C=C(Cl)C=CC2(C)C1C (centres undefined)
inactive: [9] 98 % of control | [10] 96 % of control | [11] 91 % of control

CC(C)=C(OS(=O)(=O)C(F)(F)F)[Si](C)(C)C
inactive: [12] 99 % of control | [13] 105 % of control | [14] 105 % of control

O=C(O)/C(=C/c1cccs1)c1ccc(F)cc1
inactive: [7] 110 % of control | [8] 102 % of control | [15] 104 % of control

Cc1ncc(CO)c(C=Nc2ccccc2N=Cc2c(CO)cnc(C)c2O)c1O.[Zn]
inactive: [16] 104 % of control | [17] 105 % of control | [18] 101 % of control

CCc1cccc(CC)c1NC(=O)c1ccccc1Br
inactive: [7] 97 % of control | [8] 96 % of control | [15] 112 % of control

O=C(Nc1ccc(C(=O)Nc2cc(S(=O)(=O)O)cc3cc(S(=O)(=O)O)cc(O)c23)cc1)c1ccccc1
inactive: [13] 98 % of control | [14] 106 % of control | dose: 400.0 mg/kg/injection, schedule: Q01DX009 (ip), vehicle: saline with Tween-80 103 % of control

CCC(C)C1C(=O)OC(C(Cl)(Cl)Cl)N1Cc1ccc(OC)cc1OC (centres undefined)
inactive: dose: 100.0 mg/kg/injection, schedule: Q04DX003 (ip), vehicle: Klucel (hydroxypropylcellulose) (HPC) 109 % of control | dose: 200.0 mg/kg/injection, schedule: Q04DX003 (ip), vehicle: Klucel (hydroxypropylcellulose) (HPC) 107 % of control | dose: 400.0 mg/kg/injection, schedule: Q04DX003 (ip), vehicle: Klucel (hydroxypropylcellulose) (HPC) 104 % of control

CC(C)CNc1ccc(S(=O)(=O)c2ccc(NCC(C)C)c([N+](=O)[O-])c2)cc1[N+](=O)[O-]
inactive: dose: 6.25 mg/kg/injection, schedule: Q01DX009 (ip), vehicle: saline with Tween-80 98 % of control | dose: 12.5 mg/kg/injection, schedule: Q01DX009 (ip), vehicle: saline with Tween-80 92 % of control | dose: 25.0 mg/kg/injection, schedule: Q01DX009 (ip), vehicle: saline with Tween-80 87 % of control | [12] 93 % of control

COC(=O)c1noc2c1CSc1ccccc1-2
inactive: dose: 100.0 mg/kg/injection, schedule: Q04DX002 (ip), vehicle: saline with Tween-80 104 % of control | dose: 200.0 mg/kg/injection, schedule: Q04DX002 (ip), vehicle: saline with Tween-80 99 % of control

CSc1nc(N)c(C(=O)Nc2ccc([N+](=O)[O-])cc2)s1
inactive: [1] 99 % of control | [2] 99 % of control | [3] 100 % of control

O=C(CCl)NC1(C(=O)O)CCCC1
inactive: [1] 94 % of control | [2] 90 % of control | [3] 97 % of control

CC(O)C(O)C(O)C(=O)NCc1ccccc1 (centres undefined)
inactive: [9] 100 % of control | [10] 94 % of control | [11] 99 % of control

CC1=N[C@@H](N2CCOCC2)[C@H](N2CCOCC2)N1c1ccccc1
inactive: dose: 50.0 mg/kg/injection, schedule: Q01DX005 (ip), vehicle: saline 100 % of control | dose: 100.0 mg/kg/injection, schedule: Q01DX005 (ip), vehicle: saline 107 % of control | dose: 200.0 mg/kg/injection, schedule: Q01DX005 (ip), vehicle: saline 102 % of control

Cc1c(C)n(C)c(=S)n(C)c1=S
inactive: [16] 97 % of control | [17] 99 % of control | [18] 97 % of control

c1ccc2c(-c3cc(-c4cc(-c5cccc6ccccc56)on4)no3)cccc2c1
inactive: [7] 106 % of control | [8] 97 % of control | [15] 100 % of control

COc1ccc(-c2c3ccc(=O)c(OC)cc3cn2C)cc1OC
inactive: [16] 102 % of control | [17] 94 % of control | [18] 94 % of control

O=C1c2ccccc2-c2c(Br)cc(Br)c(NC(=O)C(Cl)Cl)c21
inactive: [7] 96 % of control | [8] 96 % of control | [15] 92 % of control

CC(=O)CC(=O)c1ccc(F)cc1.CC(=O)CC(=O)c1ccc(F)cc1.[Cu]
inactive: [19] 88 % of control | [20] 89 % of control

Cc1nc(N)c2ncn(C3OC(CO)C(O)C3O)c2n1 (centres undefined)
inactive: dose: 6.25 mg/kg/injection, schedule: Q01DX009 (ip), vehicle: saline 100 % of control | dose: 12.5 mg/kg/injection, schedule: Q01DX009 (ip), vehicle: saline 106 % of control | [6] 109 % of control | [4] 112 % of control

COc1ccc2c(ccc[n+]2C)c1
inactive: dose: 5.0 mg/kg/injection, schedule: Q01DX009 (ip), vehicle: saline with Tween-80 100 % of control | [19] 110 % of control | [20] 110 % of control
